# “And” between values parts separate entries of the source, which are not always exact repeats. Equal entries are not always repeated. “Also recorded” adds a separate entry of the source.
# How the values were obtained:
# CB1 S7.39A mutation = details: cited from earlier work
# [1] = molecular target: HEK293 cells stably expressing CB2 (Homo sapiens, UniProt P34972); format: cell-based; details: 1 µM compound
# [2] = system: CB2 receptor-transfected Chinese hamster cells; details: cited from earlier work
# CB2 W5.43(194)Y mutation = details: cited from earlier work
# CB2 W5.43A/F mutations = details: suggesting a misfolded protein; cited from earlier work
# CB2 S4.53(161)A mutation = details: cited from earlier work
# CB2 S4.57(165)A mutation = details: cited from earlier work
# human CB2 receptors = human CB2 receptors (Homo sapiens, UniProt P34972); format: binding; details: ratio of Ki to Ki of 1
# Sequence of human CB2 receptors (P34972 whole entry): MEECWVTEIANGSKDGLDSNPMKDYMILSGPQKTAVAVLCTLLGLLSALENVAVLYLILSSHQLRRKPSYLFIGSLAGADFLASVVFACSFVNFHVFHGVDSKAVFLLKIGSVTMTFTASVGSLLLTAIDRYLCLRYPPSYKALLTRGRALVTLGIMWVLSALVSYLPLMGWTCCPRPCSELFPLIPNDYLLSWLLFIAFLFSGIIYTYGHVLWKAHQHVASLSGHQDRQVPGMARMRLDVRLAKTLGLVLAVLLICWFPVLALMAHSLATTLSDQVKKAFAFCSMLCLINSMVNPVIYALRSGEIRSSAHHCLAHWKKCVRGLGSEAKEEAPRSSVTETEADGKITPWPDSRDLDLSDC
# Sequence of HEK293 cells stably expressing CB2 (P34972 whole entry): as above
Compound,antagonism of CP55940 effect in the cAMP assay [1],fold loss of CB2 affinity compared to 1 (human CB2 receptors),further results
"CCCCCCC(C)(C)c1ccc([C@@H]2C[C@H](O)CC[C@H]2CCCO)c(O)c1 [CP-55,940]",,,effect of mutation on binding (CB1 S7.39A mutation): loss of binding
"Cc1ccc(Cn2nc(C(=O)N[C@@H]3C(C)(C)[C@@H]4CC[C@@]3(C)C4)cc2-c2ccc(Cl)c(C)c2)cc1 [Compound 1, N-[(1S)-endo-1,3,3-trimethylbicyclo[2.2.1]heptan2-yl]-5-(4-chloro-3-methylphenyl)-1-[(4-methylphenyl)methyl]-1H-pyrazole-3-carboxamide]","antagonize the effects of CP-55,940; also recorded: antagonize the cAMP effects of CP55940",,effect on high constitutive activity of CB2 [2]: inverse agonist; effect of mutation on binding (CB2 W5.43(194)Y mutation): decrease in the binding; effect of mutation on binding (CB2 W5.43A/F mutations): no detectable binding; effect of mutation on binding (CB2 S4.53(161)A mutation): abolished the binding; effect of mutation on binding (CB2 S4.57(165)A mutation): abolished the binding
"Cc1ccc(Cn2nc(/C=C/[C@@H]3C(C)(C)[C@@H]4CC[C@@]3(C)C4)cc2-c2ccc(Cl)c(C)c2)cc1 [Compound 2, 5-(4-Chloro-3-methylphenyl)-1-(4-methyl-benzyl)-3-[(E)-2-endo-(1,3,3-trimethyl-bicyclo[2.2.1]hept-2-yl)-vinyl]-1H-pyrazole]",lack antagonist properties,236 fold,
"Cc1ccc(Cn2cc(C(=O)N[C@@H]3C(C)(C)[C@@H]4CC[C@@]3(C)C4)cc2-c2ccc(Cl)c(C)c2)cc1 [Compound 3, 5-(4-Chloro-3-methyl-phenyl)-1-(4-methyl-benzyl)-1H-pyrrole-3-carboxylic acid (1,3,3-trimethyl-bicyclo[2.2.1]hept-2-yl)-amide]",more potent CB2 antagonist than 1; also recorded: antagonize the cAMP effects of CP55940,7 fold and 6.8 fold,
"Cc1ccc(Cn2cc(/C=C/[C@@H]3C(C)(C)[C@@H]4CC[C@@]3(C)C4)cc2-c2ccc(Cl)c(C)c2)cc1 [Compound 4, 5-(4-Chloro-3-methylphenyl)-1-[(4-methylphenyl)methyl]-3-[(E)-2-[(1S,2S,4R)-1,3,3-trimethylbicyclo[2.2.1]heptan-2-yl]ethenyl]-1H-pyrrole]",lack antagonist properties,547 fold,
"Cc1ccc(Cn2nc(C(=O)N[C@@H]3C[C@@H]4CC[C@@]3(C)C4(C)C)cc2-c2ccc(Cl)c(C)c2)cc1 [Compound 5, 5-(4-Chloro-3-methylphenyl)-1-[(4-methylphenyl)methyl]-N-[(1S,2R,4S)-1,7,7-trimethylbicyclo[2.2.1]heptan-2-yl]-1H-pyrazole-3-carboxamide]",antagonize the cAMP effects of CP55940,13 fold,
"Cc1cc(-c2cc(C(=O)N[C@@H]3C(C)(C)[C@@H]4CC[C@@]3(C)C4)nn2-c2ccccc2)ccc1Cl [Compound 6, 5-(4-Chloro-3-methylphenyl)-1-phenyl-N-{1,3,3-trimethylbicyclo[2.2.1]heptan-2-yl}-1H-pyrazole-3-carboxamide]",no antagonism; also recorded: lack antagonist properties,42 fold,
CCCCCCC(C)(C)c1cc(O)c2c(c1)OC(C)(C)[C@@H]1CC=C(CO)C[C@@H]21 [HU210],,,effect of mutation on binding (CB1 S7.39A mutation): reduction in binding
